The test system of experiment [1] is HeLa-CASP2−/−CASP3−/−GSDMD−/− (TKO) cells. Briefly: Cell death in control HeLa triple knockout cells without active caspase-2. The class given is cell-based, human. From the text:
Specific chemical compounds are powerful tools for dissecting target-related signaling mechanisms in biological contexts ([Beck et al., 2022]; [Zhang et al., 2012]). Prompted by this notion and possibly to identify a compound that could activate the PIDDosome, we designed a cell death-based high-throughput chemical screen in HeLa cells, in which a triple knockout of CASP2, CASP3, and GSDMD were constructed. CASP3 and GSDMD deficiency served as the background to minimize compound-induced nonspecific cytotoxicity and undesired pyroptosis. Using the triple knockout cells as the control, additional expression of exogenous caspase-2 allows the identification of compounds that can specifically activate the caspase-2-BID pathway and trigger apoptosis through caspase-7. […]
Figure 3. […] The ratios of the cell viability between the two groups are calculated with 3 as a cutoff for positive compound hit selection. […] Processing of caspase-2, -3, and -7 was analyzed by immunoblotting. […] ATP-based cell viability in panels (B and D) is expressed as mean ± s.d. from three technical replicates. […]
Drug-related Screening Library (25 × 384-well plate, more than 7,000 compounds) was used for the chemical screen in the TKO HeLa cells rescued with exogenous caspase-2 expression. […] After treatment for 12 h, the cell viability was measured by the ATP assay. […]

Experiment [2] concerns EL4 cells. Briefly: Cell death and caspase-2 processing in EL4 cells. It is filed as cell-based, mouse. The note with it: EL4, 8 h. From the text:
We further examined whether HUHS015-derived compounds could activate endogenous caspase-2 in human cells. […] Complementing the CASP2^−/− Jurkat cells with exogenous caspase-2 restored HUHS015-36-induced apoptosis, in which caspase-2 was expectedly processed (Fig. 5A and 5B). We also profiled caspase-2 expression in a panel of 10 mouse tumor cell lines and observed highly variable expression levels (Fig. 5C). […] In B16-F10 (melanoma), LLC1 (Lewis lung carcinoma), MB49 (bladder carcinoma), KPC (pancreatic ductal adenocarcinoma), and 4T1 (mammary carcinoma) cells, caspase-2 was expressed at much lower levels (Fig. 5C). In contrast, EMT6 (mammary carcinoma), EL4 (T lymphoblast), and Hepa1-6 (hepatoma) feature robust caspase-2 expression, much higher than in Jurkat cells (Fig. 5C).
Figure 5. HUHS015-36 activates endogenous caspase-2 to induce apoptosis in Jurkat cells but not mouse cells. (A and B) HUHS015-36 activates endogenous caspase-2 and induces apoptosis in human Jurkat cells. […] Lysates of 10 mouse cancer cell lines were analyzed by immunoblotting using indicated antibodies. […] ATP cell viability (A and D) is expressed as mean ± s.d. from three technical replicates. […]
Cell viability was measured by the ATP assay using the CellTiter-Glo® Luminescent Cell Viability Assay kit (Promega).

As to `Cc1ccc2nc(-n3nc(C)c(Cc4ccccc4)c3O)[nH]c2c1` [HUHS015], the cell death result in experiment [1] (TKO cells expressing protease-deficient caspase-2 C320A) was “no cell death”. In addition, the “cell death selectivity, caspase-2-expressing vs control TKO cells” value in experiment [1] (chemical screen, 12 h) is “robust cell death selectively in caspase-2-expressing but not the control triple knockout cells”.

As for `Cc1cccc2nc(-n3nc4c(c3O)CCCC4)[nH]c12` [HUHS015-36], the “caspase-2 processing and cell death” value in experiment [2] was “no caspase-2 processing and cell death were detected”.

The values are drawn from PMC11637483, “Dissecting caspase-2-mediated cell death: from intrinsic PIDDosome activation to chemical modulation” (Protein & Cell, 2024).
